Laboratory results published in US20130274342A1, “COMPOSITIONS AND METHODS FOR TREATING COUGH” (Cerecor, Inc., priority 2012, published 2013).

Legend:
[1] = absorption limited to the distal small bowel; cited from earlier work
[2] = test system: citric acid-induced cough; test: Citric acid-induced cough in guinea pigs, oral memantine vs vehicle; format: in vivo; details: oral administration, dose response (FIG. 2)
[3] = cited from earlier work
[4] = Memantine ex vivo buccal permeability (porcine buccal mucosa); format: in vitro ADME
[5] = Stability of memantine in alkaline conditions, solution and lozenge (Example 5); format: physicochemical
Experimental: The stability of memantine is studied within a pH range in both solution and in a lozenge dosage form. It is determined that when memantine is included in a buffer solution at a pH 8.0 or higher, memantine degrades and/or precipitates out of solution. It is determined that in a solution with a pH of 8.0, only about 85.3 percent of memantine is recovered; in a solution with a pH of 9.0, only about 29.8 percent of memantine is recovered; and in a solution with a pH of 10.0, only about 0.7 percent of memantine is recovered. In a solution with a pH of 1.0, it is determined that 97.6 percent of memantine is recovered and thus memantine is determined to be stable. It is also determined that memantine is unstable in a lozenge dosage form when it is in contact with an alkalinizing agent. It is determined that when memantine and sodium hydroxide are added together in a lozenge dosage form, only about 40% to about 60% memantine is recovered, with the remaining memantine degrading and/or precipitating out during the lozenge preparation process. It is determined that when memantine and sodium carbonate are added together in a lozenge dosage form, only about 40% to about 60% memantine is recovered, with the remaining memantine degrading and/or precipitating out during the lozenge preparation process.

Caco-2 cells = test: Memantine in vitro intestinal permeability (Caco-2 cells); format: in vitro ADME
[6] = Pharmacokinetic evaluation of memantine with sodium hydroxide, menthol and optionally NH4Cl in male beagle dogs (Example 2); format: in vivo; details: 0.4 mg/kg, Route Oral
Experimental: The pharmacokinetics of memantine were evaluated after buccal administration in male beagle dogs. Memantine was formulated in water, 3.3 mg/mL sodium hydroxide in water, or 7.5 mg/mL sodium carbonate in water. All dogs received a 0.4 mg/kg dose of memantine. Plasma levels of memantine were determined by LC-MS/MS. Pharmacokinetic parameters were determined for the memantine plasma data.
For dosing, dogs were anesthetized with an IV injection of ketamine/diazepam, and maintained by isoflurane intubation during the buccal administration. The dosing solution was pipetted into a circular cylinder to concentrate the dosing solution on one area of the mucosa. At just prior to the 15 minute sample time point, the oral cavity was rinsed with 5 mL of water and dried with gauze. Immediately after the rinse, the 15 minute sample was collected.
The pharmacokinetics of memantine were evaluated after buccal administration in male beagle dogs using procedures similar to those used in Example 1, except that menthol or menthol and ammonium chloride where co-administered with the sodium hydroxide (Table 2). Table 2 provides a summary of pharmacokinetic findings, comparing memantine compositions containing an alkalinizing agent to increase local pH and a permeation enhancer (menthol), and optionally a urinary acidifying agent. […] Further addition of a urinary acidifying agent (e.g., NH4Cl) further reduces T1/2, indicating more rapid elimination of memantine.

Row | increase in permeability of memantine in porcine buccal mucosa ([4]; increase in pH from 5.5 to 9.0 (FIG. 4)) | increase in permeability of memantine in porcine buccal mucosa ([4]; increase in pH from 8.0 to 9.0 (FIG. 5)) | memantine recovered ([5]; solution with a pH of 1.0) | memantine recovered ([5]; solution with a pH of 8.0) | memantine recovered ([5]; solution with a pH of 9.0) | memantine recovered ([5]; solution with a pH of 10.0) | permeability of memantine in Caco-2 cells (Caco-2 cells; increase in pH from pH 5.0 to 10.5 (FIG. 3)) | AUC0-∞ ([6]; 3.3 mg/ml sodium hydroxide + 5 mg/ml menthol) | Cmax/Dose ([6]; 3.3 mg/ml sodium hydroxide + 5 mg/ml menthol + 20 mg/kg NH4Cl) | AUC0-t ([6]; Control) | effect as permeation enhancer on memantine Caco-2 permeability (Caco-2 cells; FIG. 6) | Compound | time to maximum plasma concentration (Tmax) [1] | efficacy on citric acid-induced cough relative to vehicle control [2] | dissociation constant (pKa) [3]
1 | over 100 fold | about 3.8 fold | 97.6% | about 85.3% | about 29.8% | about 0.7% | gradually increases | 126 ng·h/mL | 26.03 | 120 ng·h/mL |  | CC12CC3CC(C)(C1)CC(N)(C3)C2 [memantine, 3,5-dimethyl-1-adamantanamine] | 4 to 7 h | dose-dependent antitussive effects | ~10
2 |  |  |  |  |  |  |  |  |  |  | ineffective | polysorbate 80 |  |  | 
